Source: patent US7074789B2, “Kinase inhibitors” (Amgen Inc., priority 1999, dated 2006)

Legend:
Format in all cases: biochemical
Itk = target: T1, Itk (Homo sapiens, UniProt Q08881); experiment: Kinase inhibition assay (33P transfer), Itk; conditions: read-out: Itk-1
T1 construct: Kinases are expressed as either kinase domains or full length constructs; made in house
T1 sequence (Q08881 1-620): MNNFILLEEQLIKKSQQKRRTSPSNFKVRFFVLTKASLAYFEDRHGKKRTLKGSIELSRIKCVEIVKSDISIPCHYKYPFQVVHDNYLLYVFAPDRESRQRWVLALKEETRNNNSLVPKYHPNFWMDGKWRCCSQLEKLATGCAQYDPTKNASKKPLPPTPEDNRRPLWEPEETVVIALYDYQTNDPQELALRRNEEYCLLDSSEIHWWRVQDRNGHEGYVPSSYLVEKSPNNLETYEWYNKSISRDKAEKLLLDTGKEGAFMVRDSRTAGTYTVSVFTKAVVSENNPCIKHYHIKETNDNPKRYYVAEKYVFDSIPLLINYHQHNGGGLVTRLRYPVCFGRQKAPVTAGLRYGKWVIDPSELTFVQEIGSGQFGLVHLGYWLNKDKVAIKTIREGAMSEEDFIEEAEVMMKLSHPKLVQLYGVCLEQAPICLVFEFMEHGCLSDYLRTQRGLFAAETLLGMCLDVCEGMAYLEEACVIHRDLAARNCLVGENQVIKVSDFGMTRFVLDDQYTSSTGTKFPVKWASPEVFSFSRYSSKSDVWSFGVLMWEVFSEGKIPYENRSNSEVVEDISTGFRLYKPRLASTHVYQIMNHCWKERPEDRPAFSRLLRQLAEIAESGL
How it was run: (§1)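 Read-out: scintillation counts of 33P moved from ATP onto synthetic peptide polymer coated on the well surface, after washing with 0.5% phosphoric acid. Enzymes were tagged (GST or polyHistidine) and came from bacterial or insect-cell expression. IC50 marks 50% loss of incorporated label.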

IGFR-1 = target: T2, IGFR-1 (Homo sapiens, UniProt P08069); experiment: Kinase inhibition assay, IGFR-1 (Table 2); conditions: Table 2, kinase inhibition class
T2 construct: Kinases are expressed as either kinase domains or full length constructs; made in house

PDGFRB = target: T3, PDGFRB (Homo sapiens, UniProt P09619); experiment: Kinase inhibition assay (33P transfer), PDGFRB; conditions: read-out: PDGFRB-1
T3 construct: Kinases are expressed as either kinase domains or full length constructs; made in house

Lck = target: T4, Lck (Homo sapiens, UniProt P06239); experiment: Kinase inhibition assay (33P transfer), Lck; conditions: read-out: Lck-1
T4 construct: Kinases are expressed as either kinase domains or full length constructs; made in house
How it was run: (§2)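 Kinase domain or full-length constructs, GST- or polyHis-tagged, expressed in E. coli or baculovirus-High Five cells, sometimes with regulatory polypeptides. Activity measured as 33PO4 transfer from ATP to plate-bound poly(Glu,Tyr) 4:1 or poly(Arg,Ser) 3:1; after incubation, plates washed with 0.5% phosphoric acid and counted by liquid scintillation.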

AKT = target: T5, AKT (Homo sapiens, UniProt Q9Y243); experiment: Kinase inhibition assay (33P transfer), AKT; conditions: Table 2, kinase inhibition class; read-out: AKT3-1
T5 construct: Kinases are expressed as either kinase domains or full length constructs; made in house
How it was run: as §2

Kdr = target: T6, Kdr (Homo sapiens, UniProt P35968); experiment: Kinase inhibition assay (33P transfer), Kdr; conditions: read-out: KDR-1
T6 construct: Kinases are expressed as either kinase domains or full length constructs; made in house
How it was run: as §2

c-Met = target: T7, c-Met (Homo sapiens, UniProt P08581); experiment: Kinase inhibition assay (33P transfer), c-Met; conditions: Table 2, kinase inhibition class; read-out: Met-1
T7 construct: Kinases are expressed as either kinase domains or full length constructs; made in house
How it was run: as §1

ErbB2 = target: T8, ErbB2 (Homo sapiens, UniProt P04626); experiment: Kinase inhibition assay (33P transfer), ErbB2; conditions: read-out: ErbB2-2
T8 construct: Kinases are expressed as either kinase domains or full length constructs; made in house
How it was run: as §1

EGFR = target: T9, EGFR (Homo sapiens, UniProt P00533); experiment: Kinase inhibition assay (33P transfer), EGFR; conditions: Table 2, kinase inhibition class; read-out: EGFR-1
T9 construct: Kinases are expressed as either kinase domains or full length constructs; made in house
How it was run: as §1

Zap-70 = target: T10, Zap-70 (Homo sapiens, UniProt P43403); experiment: Kinase inhibition assay (33P transfer), Zap-70; conditions: read-out: Zap-1
T10 construct: Kinases are expressed as either kinase domains or full length constructs; made in house
T10 sequence (P43403 1-619): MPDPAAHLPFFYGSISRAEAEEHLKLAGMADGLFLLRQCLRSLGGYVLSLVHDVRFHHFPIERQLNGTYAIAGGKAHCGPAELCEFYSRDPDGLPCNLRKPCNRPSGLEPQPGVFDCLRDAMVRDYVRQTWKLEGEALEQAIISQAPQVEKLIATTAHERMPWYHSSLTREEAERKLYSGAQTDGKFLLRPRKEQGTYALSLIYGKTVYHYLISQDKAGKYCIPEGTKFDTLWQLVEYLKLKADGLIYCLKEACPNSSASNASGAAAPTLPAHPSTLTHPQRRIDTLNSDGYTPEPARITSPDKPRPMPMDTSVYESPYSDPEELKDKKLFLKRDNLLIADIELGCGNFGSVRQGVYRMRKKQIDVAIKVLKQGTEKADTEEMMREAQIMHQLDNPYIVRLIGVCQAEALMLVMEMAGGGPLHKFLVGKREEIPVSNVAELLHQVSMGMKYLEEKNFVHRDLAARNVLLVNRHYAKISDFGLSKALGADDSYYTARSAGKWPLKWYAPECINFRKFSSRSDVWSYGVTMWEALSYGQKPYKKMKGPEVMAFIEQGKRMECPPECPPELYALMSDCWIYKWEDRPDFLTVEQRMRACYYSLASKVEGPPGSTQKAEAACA
How it was run: as §2

T9 sequence (P00533 25-1210, species assumed): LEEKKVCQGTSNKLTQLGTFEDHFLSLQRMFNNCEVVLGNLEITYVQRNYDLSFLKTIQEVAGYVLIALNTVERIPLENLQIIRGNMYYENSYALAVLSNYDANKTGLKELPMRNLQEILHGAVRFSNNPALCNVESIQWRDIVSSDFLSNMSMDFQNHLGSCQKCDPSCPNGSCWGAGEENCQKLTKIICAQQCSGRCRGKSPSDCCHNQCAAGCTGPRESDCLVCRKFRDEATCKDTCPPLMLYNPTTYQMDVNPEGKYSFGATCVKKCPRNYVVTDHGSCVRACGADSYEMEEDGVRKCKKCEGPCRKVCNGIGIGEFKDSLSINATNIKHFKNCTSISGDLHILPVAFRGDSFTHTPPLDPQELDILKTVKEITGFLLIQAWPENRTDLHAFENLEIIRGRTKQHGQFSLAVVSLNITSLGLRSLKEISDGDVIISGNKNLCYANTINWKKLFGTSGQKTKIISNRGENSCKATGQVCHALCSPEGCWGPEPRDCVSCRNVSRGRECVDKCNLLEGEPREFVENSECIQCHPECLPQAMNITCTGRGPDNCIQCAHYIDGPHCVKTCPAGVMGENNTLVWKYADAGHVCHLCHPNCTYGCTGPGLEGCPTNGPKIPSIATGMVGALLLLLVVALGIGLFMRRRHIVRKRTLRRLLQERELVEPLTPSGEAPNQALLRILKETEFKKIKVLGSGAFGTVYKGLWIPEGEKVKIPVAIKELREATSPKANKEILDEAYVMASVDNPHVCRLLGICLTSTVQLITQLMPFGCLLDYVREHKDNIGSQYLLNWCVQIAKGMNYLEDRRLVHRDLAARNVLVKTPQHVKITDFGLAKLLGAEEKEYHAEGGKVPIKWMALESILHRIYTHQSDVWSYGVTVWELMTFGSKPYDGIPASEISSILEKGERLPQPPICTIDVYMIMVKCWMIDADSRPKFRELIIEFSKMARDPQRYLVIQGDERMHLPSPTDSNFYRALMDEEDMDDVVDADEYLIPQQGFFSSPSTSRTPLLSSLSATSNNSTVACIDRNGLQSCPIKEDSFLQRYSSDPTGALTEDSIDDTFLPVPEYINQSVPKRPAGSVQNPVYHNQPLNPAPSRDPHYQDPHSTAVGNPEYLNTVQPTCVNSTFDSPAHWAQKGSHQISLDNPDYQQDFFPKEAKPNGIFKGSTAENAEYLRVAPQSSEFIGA
T4 sequence (P06239 whole entry, species assumed, the tested form may be a part): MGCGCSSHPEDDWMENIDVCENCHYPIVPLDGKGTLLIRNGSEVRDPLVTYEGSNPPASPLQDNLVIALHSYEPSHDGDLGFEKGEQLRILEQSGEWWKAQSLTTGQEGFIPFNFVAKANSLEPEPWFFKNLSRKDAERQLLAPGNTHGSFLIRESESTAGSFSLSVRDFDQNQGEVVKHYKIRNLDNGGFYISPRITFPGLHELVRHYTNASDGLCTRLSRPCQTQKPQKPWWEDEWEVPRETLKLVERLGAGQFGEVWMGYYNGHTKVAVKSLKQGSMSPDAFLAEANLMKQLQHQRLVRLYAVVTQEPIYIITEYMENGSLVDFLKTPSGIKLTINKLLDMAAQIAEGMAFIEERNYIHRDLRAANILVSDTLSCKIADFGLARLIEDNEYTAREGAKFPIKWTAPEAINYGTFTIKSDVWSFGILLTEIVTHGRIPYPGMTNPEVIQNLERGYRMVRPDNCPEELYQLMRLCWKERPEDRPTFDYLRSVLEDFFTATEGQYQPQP
T7 sequence (P08581 25-1390): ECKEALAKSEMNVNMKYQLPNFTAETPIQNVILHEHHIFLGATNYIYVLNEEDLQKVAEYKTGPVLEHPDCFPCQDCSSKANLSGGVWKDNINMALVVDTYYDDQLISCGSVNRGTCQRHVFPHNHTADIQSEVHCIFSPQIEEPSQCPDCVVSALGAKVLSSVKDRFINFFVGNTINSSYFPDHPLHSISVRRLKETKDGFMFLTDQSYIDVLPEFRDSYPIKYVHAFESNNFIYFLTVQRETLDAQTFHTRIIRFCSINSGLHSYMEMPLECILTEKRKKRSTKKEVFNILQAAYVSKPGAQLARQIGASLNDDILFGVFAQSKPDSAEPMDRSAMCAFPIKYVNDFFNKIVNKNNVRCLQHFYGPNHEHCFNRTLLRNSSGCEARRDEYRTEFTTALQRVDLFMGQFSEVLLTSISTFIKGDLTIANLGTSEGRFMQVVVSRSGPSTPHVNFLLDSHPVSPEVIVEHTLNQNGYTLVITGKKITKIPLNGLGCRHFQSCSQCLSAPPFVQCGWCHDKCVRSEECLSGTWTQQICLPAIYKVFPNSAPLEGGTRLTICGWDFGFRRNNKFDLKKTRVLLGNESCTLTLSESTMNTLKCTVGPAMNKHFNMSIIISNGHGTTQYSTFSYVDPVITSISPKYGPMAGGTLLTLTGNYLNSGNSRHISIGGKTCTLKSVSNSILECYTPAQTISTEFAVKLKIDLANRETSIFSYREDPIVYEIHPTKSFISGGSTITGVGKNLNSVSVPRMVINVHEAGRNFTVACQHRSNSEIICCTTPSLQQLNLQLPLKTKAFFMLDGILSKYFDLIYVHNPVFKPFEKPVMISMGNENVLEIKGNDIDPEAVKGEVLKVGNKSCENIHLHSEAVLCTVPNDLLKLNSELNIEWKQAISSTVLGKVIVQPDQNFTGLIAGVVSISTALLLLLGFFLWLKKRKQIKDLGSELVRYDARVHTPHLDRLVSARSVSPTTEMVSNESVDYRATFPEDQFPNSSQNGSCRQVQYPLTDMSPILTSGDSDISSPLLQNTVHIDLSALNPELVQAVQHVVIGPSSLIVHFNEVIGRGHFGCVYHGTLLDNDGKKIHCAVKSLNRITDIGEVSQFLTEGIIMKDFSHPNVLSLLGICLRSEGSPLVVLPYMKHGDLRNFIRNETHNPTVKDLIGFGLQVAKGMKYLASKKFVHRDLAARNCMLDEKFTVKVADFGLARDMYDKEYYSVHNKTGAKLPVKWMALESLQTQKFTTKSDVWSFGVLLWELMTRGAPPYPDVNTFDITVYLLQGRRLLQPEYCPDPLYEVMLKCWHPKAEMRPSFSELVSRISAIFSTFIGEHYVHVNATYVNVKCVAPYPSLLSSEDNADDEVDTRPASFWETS
T6 sequence (P35968 20-1356, species assumed): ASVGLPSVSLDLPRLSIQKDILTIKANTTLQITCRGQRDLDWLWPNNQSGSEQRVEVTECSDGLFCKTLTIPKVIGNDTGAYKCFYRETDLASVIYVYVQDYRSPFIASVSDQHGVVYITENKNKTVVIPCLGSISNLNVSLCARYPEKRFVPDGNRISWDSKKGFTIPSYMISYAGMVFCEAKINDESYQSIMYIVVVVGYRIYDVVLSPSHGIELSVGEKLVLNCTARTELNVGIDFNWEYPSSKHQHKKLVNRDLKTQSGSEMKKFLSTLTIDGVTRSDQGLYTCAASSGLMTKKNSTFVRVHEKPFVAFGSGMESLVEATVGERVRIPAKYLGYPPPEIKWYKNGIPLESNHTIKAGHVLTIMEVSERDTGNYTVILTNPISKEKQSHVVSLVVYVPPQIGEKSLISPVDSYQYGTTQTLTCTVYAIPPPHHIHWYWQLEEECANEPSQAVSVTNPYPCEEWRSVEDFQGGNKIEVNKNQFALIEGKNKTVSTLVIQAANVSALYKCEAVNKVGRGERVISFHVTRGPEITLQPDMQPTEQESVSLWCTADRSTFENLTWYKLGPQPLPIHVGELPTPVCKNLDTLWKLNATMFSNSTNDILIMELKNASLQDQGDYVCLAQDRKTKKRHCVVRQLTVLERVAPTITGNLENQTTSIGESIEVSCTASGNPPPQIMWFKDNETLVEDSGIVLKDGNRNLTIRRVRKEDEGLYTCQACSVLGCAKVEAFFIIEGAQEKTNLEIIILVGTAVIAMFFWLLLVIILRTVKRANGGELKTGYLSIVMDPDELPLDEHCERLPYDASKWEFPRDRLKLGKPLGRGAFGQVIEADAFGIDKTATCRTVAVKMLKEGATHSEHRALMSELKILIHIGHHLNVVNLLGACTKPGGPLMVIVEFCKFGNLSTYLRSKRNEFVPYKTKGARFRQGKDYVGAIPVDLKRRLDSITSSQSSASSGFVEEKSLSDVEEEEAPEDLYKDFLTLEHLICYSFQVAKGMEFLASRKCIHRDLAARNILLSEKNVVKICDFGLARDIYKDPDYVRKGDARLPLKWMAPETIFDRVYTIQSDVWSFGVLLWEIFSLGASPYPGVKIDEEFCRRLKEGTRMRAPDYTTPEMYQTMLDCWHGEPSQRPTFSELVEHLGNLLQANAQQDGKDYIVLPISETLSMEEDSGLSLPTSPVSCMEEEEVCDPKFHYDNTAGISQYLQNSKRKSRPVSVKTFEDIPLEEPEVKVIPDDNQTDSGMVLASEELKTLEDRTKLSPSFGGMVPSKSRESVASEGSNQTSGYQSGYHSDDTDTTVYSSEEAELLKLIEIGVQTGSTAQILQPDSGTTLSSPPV
T5 sequence (Q9Y243 whole entry, the tested form may be a part): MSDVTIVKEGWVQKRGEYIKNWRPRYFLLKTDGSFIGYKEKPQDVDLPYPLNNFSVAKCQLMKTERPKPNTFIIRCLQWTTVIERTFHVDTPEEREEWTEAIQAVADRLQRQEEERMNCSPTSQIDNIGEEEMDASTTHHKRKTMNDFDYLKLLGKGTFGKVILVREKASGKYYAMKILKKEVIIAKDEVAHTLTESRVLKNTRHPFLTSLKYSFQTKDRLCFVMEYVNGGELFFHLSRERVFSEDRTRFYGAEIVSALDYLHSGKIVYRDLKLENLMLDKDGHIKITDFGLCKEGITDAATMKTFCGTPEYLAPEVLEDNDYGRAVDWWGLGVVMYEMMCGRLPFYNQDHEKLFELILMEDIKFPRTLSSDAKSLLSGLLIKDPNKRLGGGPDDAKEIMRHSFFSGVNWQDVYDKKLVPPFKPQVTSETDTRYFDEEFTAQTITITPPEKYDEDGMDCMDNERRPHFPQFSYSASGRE

Row | Compound | IC50 (Itk) [µM] | IC50 (IGFR-1) [µM] | IC50 (PDGFRB) [µM] | IC50 (Lck) [µM] | IC50 (AKT) [µM] | IC50 (Kdr) [µM] | IC50 (c-Met) [µM] | IC50 (ErbB2) [µM] | IC50 (EGFR) [µM] | IC50 (Zap-70) [µM]
1 | CCOC(=O)N1CCC(Nc2ncnc(N3CCCc4cc(C)ccc43)n2)CC1 [Compound 765] | > 11.3 | > 11.3 | > 11.3 | > 11.3 | > 11.3 | > 11.3 | > 11.3 | > 11.3 | > 11.3 | > 11.3
2 | COC(=O)c1sccc1Nc1ncnc(N2CCCc3cc(C)ccc32)n1 [Compound 767] | > 11.8 | > 11.8 | > 11.8 | > 11.8 | > 11.8 | > 11.8 | > 11.8 | > 11.8 | > 11.8 | > 11.8
3 | Cc1ccc2c(c1)CCCN2c1ncnc(NCCc2c[nH]c3ccccc23)n1 [Compound 768] | > 11.7 | > 11.7 | > 11.7 | > 11.7 | > 11.7 | 9.1 to 11.7 | 6.24 to 9.1 | 9.1 to 11.7 | > 11.7 | > 11.7
4 | Cc1ccc2c(c1)CCCN2c1ncnc(NCc2ccccn2)n1 [Compound 769] | > 13.5 | > 13.5 | > 13.5 | > 13.5 | > 13.5 | > 13.5 | > 13.5 | > 13.5 | > 13.5 | > 13.5
5 | Cc1ccc2c(c1)CCCN2c1ncnc(Nc2cccc(CO)c2)n1 [Compound 770] | > 13 | 10.1 to 13 | < 1.15 | < 1.15 | > 13 | 1.15 to 6.91 | < 1.15 | < 1.15 | < 1.15 | > 13

More lines, now with the values ahead:

Row | IC50 (Itk) [µM] | IC50 (IGFR-1) [µM] | IC50 (PDGFRB) [µM] | IC50 (Lck) [µM] | IC50 (AKT) [µM] | IC50 (Kdr) [µM] | IC50 (c-Met) [µM] | IC50 (ErbB2) [µM] | IC50 (EGFR) [µM] | IC50 (Zap-70) [µM] | Compound
6 | > 11.2 | > 11.2 | < 0.999 | > 11.2 | > 11.2 | > 11.2 | < 0.999 | > 11.2 | < 0.999 | > 11.2 | CC(=O)N1CCc2cc(Nc3ncnc(N4CCCc5cc(C)ccc54)n3)ccc21 [Compound 764]
7 | < 1.3 | 1.3 to 7.81 | 1.3 to 7.81 | 1.3 to 7.81 | > 14.6 | 1.3 to 7.81 | 1.3 to 7.81 | 1.3 to 7.81 | 1.3 to 7.81 | > 14.6 | Cc1ccc2c(c1)CCCN2c1ncnc(Nc2cc[nH]n2)n1 [Compound 766]
8 | > 11.1 | > 11.1 | > 11.1 | > 11.1 | > 11.1 | 5.92 to 8.63 | > 11.1 | > 11.1 | > 11.1 | > 11.1 | COc1ccc(CCNc2ncnc(N3CCCc4cc(C)ccc43)n2)cc1OC [Compound 771]
9 | 10 to 12.9 | > 12.9 | 10 to 12.9 | > 12.9 | > 12.9 | > 12.9 | > 12.9 | > 12.9 | > 12.9 | > 12.9 | Cc1ccc2c(c1)CCCN2c1ncnc(NCCCn2ccnc2)n1 [Compound 772]
10 | 1.07 to 6.41 | 1.07 to 6.41 | < 1.07 | 1.07 to 6.41 | > 12 | 1.07 to 6.41 | < 1.07 | 1.07 to 6.41 | 1.07 to 6.41 | > 12 | Cc1ccc2c(c1)CCCN2c1ncnc(Nc2ccc3ncsc3c2)n1 [Compound 773]
